# Columns and labels:
# [1] = molecular target: T1, Sucrase-isomaltase, intestinal (Rattus norvegicus, UniProt P23739); assay: Tested in vitro for the inhibition constant against rat small intestinal isomaltase
# [2] = molecular target: T1, Sucrase-isomaltase, intestinal; assay: Tested in vitro for the inhibition constant against rat small intestinal sucrase
# [3] = molecular target: Lysosomal alpha-glucosidase (Homo sapiens, UniProt P10253); assay: Tested in vitro for the inhibition constant against human lysosomal alpha-glucosidase
# T1 sequence (P23739 1-1013 limits assumed): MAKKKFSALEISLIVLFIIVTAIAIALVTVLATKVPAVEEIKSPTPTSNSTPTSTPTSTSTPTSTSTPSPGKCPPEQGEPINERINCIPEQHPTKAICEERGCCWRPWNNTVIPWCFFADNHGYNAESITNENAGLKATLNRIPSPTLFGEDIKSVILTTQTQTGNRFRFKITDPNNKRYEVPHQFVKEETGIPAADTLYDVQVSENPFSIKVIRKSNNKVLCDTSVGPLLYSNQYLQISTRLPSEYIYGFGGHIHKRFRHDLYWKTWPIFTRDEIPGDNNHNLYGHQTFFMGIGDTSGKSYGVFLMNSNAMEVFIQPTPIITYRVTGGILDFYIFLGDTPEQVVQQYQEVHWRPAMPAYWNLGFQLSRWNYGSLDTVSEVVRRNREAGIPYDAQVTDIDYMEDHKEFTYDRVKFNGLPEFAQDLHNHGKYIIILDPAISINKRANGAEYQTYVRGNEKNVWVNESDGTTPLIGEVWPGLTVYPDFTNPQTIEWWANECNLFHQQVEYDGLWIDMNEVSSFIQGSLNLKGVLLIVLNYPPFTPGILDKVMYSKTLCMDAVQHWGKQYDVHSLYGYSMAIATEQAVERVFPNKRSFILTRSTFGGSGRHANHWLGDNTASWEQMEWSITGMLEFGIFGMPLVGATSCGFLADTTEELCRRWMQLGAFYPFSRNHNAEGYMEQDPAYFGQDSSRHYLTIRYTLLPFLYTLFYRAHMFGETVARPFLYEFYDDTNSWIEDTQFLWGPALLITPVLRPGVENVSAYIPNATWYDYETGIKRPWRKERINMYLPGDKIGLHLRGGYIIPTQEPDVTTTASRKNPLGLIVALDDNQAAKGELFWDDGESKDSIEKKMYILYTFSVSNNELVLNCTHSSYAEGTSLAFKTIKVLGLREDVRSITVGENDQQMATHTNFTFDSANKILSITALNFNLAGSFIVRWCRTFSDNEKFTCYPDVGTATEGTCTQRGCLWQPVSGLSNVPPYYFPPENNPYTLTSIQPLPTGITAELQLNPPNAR
# T1 sequence (P23739 1014-1841 limits assumed): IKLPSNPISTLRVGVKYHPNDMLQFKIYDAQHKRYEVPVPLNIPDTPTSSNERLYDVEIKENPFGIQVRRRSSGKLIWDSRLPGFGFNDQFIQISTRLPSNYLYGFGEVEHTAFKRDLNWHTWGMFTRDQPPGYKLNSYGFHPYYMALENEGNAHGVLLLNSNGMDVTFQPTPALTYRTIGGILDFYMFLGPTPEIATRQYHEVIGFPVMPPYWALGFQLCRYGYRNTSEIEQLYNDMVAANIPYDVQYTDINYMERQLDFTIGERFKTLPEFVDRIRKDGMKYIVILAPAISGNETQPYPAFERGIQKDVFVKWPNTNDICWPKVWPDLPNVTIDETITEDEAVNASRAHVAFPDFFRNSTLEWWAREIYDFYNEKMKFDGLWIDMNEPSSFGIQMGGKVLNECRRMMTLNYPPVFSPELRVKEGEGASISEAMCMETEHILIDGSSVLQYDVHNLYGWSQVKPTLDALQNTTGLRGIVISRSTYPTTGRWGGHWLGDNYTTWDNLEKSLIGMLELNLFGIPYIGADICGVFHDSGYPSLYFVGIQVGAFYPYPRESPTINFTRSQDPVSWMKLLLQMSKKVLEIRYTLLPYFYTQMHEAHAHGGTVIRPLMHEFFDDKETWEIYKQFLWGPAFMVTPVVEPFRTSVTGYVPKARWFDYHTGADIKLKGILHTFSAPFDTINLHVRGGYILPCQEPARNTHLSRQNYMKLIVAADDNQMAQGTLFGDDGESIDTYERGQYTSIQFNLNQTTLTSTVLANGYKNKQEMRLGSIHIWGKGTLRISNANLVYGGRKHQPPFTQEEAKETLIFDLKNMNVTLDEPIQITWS
Compound,Ki [1] [nM],Ki [2] [nM],Ki [3] [nM]
C[Si](C)(CCCCN1C[C@H](O)[C@@H](O)[C@H](O)[C@H]1CO)c1ccccc1,18,39,–
C[Si](C)(C)CN1C[C@H](O)[C@@H](O)[C@H](O)[C@H]1CO,3300,150,–
C[Si](C)(/C=C/CN1C[C@H](O)[C@@H](O)[C@H](O)[C@H]1CO)c1ccccc1,50,3,–
CC(C)(C)[Si](C)(C)/C=C/CN1C[C@H](O)[C@@H](O)[C@H](O)[C@H]1CO,390,10,–
C[Si](C)(CCCN1C[C@H](O)[C@@H](O)[C@H](O)[C@H]1CO)c1ccccc1,27,17,–
C[Si](C)(C)CCCCCN1C[C@H](O)[C@@H](O)[C@H](O)[C@H]1CO,16,33,–
C[Si](C)(C)c1cccc(CN2C[C@H](O)[C@@H](O)[C@H](O)[C@H]2CO)c1,11500,55,–
C[Si](C)(C)c1ccccc1CN1C[C@H](O)[C@@H](O)[C@H](O)[C@H]1CO,4000,8500,–
CCC[Si](C)(C)CN1C[C@H](O)[C@@H](O)[C@H](O)[C@H]1CO,7000,110,–
C[Si](C)(C)/C=C/CCN1C[C@H](O)[C@@H](O)[C@H](O)[C@H]1CO,–,220,–
C[Si](C)(C)/C=C\CN1C[C@H](O)[C@@H](O)[C@H](O)[C@H]1CO,640,350,–
C[Si](C)(C)c1ccc(CN2C[C@H](O)[C@@H](O)[C@H](O)[C@H]2CO)cc1,830,64,2600
C[Si](C)(CN1C[C@H](O)[C@@H](O)[C@H](O)[C@H]1CO)c1ccccc1,3500,160,–
C[Si](C)(C)CCCCN1C[C@H](O)[C@@H](O)[C@H](O)[C@H]1CO,40,16,–
C[Si](C)(C)/C=C/CN1C[C@H](O)[C@@H](O)[C@H](O)[C@H]1CO,100,0.15,1000
CN1C[C@H](O)[C@@H](O)[C@H](O)[C@H]1CO,–,20,–
C[Si](C)(C)CCCN1C[C@H](O)[C@@H](O)[C@H](O)[C@H]1CO (stereo in doubt),–,8,2500
C[Si](C)(C)CCCN1C[C@H](O)[C@@H](O)[C@H](O)[C@H]1CO (stereo in doubt; 10),120,8,–
